Columns and labels:
[1] = acute OGTT study of combination therapy using Metformin and Inhibitor A in rats; assay type: in vivo
Description: FIG. 2: An acute OGTT study to determine the effects of combination therapy using Metformin and Inhibitor A on glucose-lowering was conducted in rats. In order to stabilize glucose levels, food was withdrawn for 1 hr prior to administration of any reagent. Glucose challenge was administered 2 hrs after the administration of Inhibitor A and plasma glucose monitored. Plasma glucose levels increased upon administration of the Inhibitor (200 mpk) to 150 mg/dl prior to glucose challenge and to 250 mg/dl post-glucose challenge.

[2] = target: T1, insulin receptor (Rattus norvegicus, UniProt P15127); test: acute Oral Glucose Tolerance Test (OGTT) in rats; assay type: in vivo; conditions: fasted rats, oral single dose 50, 100 and 200 mpk 4 hrs prior to glucose challenge (1 g/kg); glucose at 30, 60, 90, 120 min by glucometer
T1 construct: from tissue; host or cells: whole living rats (in vivo)
Description: FIG. 1: The effect of inhibition of the insulin receptor was measured using an Oral Glucose Tolerance Test (OGTT). IGF1R Inhibitor A (4-[2-(3-chloro-phenyl)-2-hydroxy-ethylamino]-3-(4-methyl-6-morpholin-4-yl-1H-benzoimidazol-2-yl)-1H-pyridin-2-one) was tested in an acute OGTT study in rats: Fasted rats were orally dosed with Inhibitor A at 50, 100, and 200 mpk as a single dose for 4 hrs prior to glucose challenge (1 g/kg). Glucose was monitored at 30, 60, 90 and 120 minutes post glucose challenge using a glucometer.

T1 sequence (P15127 764-1383 limits assumed): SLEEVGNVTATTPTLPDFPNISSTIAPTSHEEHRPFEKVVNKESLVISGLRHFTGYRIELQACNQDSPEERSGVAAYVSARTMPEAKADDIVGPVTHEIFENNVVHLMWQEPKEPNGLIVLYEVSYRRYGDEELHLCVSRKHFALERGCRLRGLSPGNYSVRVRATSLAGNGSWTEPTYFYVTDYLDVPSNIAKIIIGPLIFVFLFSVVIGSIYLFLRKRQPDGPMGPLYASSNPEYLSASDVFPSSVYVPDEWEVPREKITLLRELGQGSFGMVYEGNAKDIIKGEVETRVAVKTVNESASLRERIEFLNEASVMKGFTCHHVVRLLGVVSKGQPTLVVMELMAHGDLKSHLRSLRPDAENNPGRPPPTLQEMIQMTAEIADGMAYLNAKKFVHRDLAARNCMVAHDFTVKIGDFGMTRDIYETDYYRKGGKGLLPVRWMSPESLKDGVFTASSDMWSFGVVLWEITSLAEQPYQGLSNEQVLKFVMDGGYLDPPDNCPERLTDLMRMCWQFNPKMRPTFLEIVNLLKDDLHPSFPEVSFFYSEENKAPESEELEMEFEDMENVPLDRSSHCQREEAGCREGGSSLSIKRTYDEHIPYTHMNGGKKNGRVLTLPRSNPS
T1 sequence (P15127 27-759 partner limits assumed): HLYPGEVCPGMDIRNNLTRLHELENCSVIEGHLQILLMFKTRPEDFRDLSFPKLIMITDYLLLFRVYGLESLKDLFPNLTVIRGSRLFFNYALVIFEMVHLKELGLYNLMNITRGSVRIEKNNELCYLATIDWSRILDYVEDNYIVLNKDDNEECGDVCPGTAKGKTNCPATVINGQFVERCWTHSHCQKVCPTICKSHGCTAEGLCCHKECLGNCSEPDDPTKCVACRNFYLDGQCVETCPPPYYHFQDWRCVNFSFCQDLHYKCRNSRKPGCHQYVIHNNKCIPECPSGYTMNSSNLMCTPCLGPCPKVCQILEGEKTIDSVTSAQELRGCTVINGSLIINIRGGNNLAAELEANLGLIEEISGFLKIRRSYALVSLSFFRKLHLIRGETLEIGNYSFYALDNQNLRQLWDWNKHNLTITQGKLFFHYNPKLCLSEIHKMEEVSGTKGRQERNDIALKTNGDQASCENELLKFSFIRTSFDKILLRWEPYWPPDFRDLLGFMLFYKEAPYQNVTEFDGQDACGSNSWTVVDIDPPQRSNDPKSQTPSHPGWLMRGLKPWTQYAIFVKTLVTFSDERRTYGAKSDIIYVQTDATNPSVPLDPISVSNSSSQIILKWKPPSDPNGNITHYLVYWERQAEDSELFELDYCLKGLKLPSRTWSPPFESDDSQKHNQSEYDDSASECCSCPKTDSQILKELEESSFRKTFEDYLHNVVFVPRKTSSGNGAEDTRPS

Row | Compound | hyperglycemic effects of Inhibitor A after Metformin pretreatment ([1]; rats pretreated for 1 hr with Metformin 450 mpk, then Inhibitor A 200 mpk) | plasma glucose level post-glucose challenge ([1]; rats, Inhibitor 200 mpk, glucose challenge 2 hrs after Inhibitor A) [mg/dL] | plasma glucose level prior to glucose challenge ([1]; rats, Inhibitor 200 mpk, prior to glucose challenge) [mg/dL] | effect on basal and post-glucose challenge glucose [2]
1 | CN(C)C(=N)N=C(N)N [Metformin, reference compound] | completely ameliorated |  |  | 
2 | Cc1cc(N2CCOCC2)cc2[nH]c(-c3c(NCC(O)c4cccc(Cl)c4)cc[nH]c3=O)nc12 (stereo not shown) [Inhibitor A, 4-[2-(3-chloro-phenyl)-2-hydroxy-ethylamino]-3-(4-methyl-6-morpholin-4-yl-1H-benzoimidazol-2-yl)-1H-pyridin-2-one] |  | 250 | 150 | more pronounced effect on basal and post-glucose challenge at higher drug concentrations

From patent US20050075358A1, “Methods for treating IGF1R-inhibitor induced hyperglycemia” (priority 2003, published 2005)
